Experimental data from US20120263719A1, “COMPOSITIONS AND METHODS FOR TREATING ASPERGILLOSIS” (priority 2009, published 2012).
Converted amounts (≈) assume the structure as drawn. Like-named read-outs stand apart in the source and are kept apart here.

What was measured:
[1] = test system: AF-infected mice; experiment: Animal survival experiment in AF-infected immunosuppressed mice (36 days); type: in vivo; settings: group 8: 1 mg/kg i.t.
[2] = test system: Aspergillus fumigatus; experiment: In vitro antifungal activity (NCCLS M27-A; MIC/MFC, hyphal growth); type: cell-based; settings: for MFC: Aspergillus fumigatus
Method: The antifungal activity of mAb (MPS5.44)-alliinase conjugates was determined according to the conditions of National Committee for Clinical Laboratory Standards (NCCLS) document M27-A. Resting conidia (3×10^4 conidia/well) were seeded in 96-well plates and incubated for 4 hours at 37° C. with RPMI/MOPS (100 μl). mAb-alliinase conjugate was applied in serial 2-fold dilutions, in triplicates and incubated for 30 min at 37° C., then washed four times followed by the addition of alliin (0.5 mg/ml). Hyphal growth was monitored by microscopic observation as well as by optical density (OD595), or by fluorescence of the strain CBS/DsRed (excitation at 540 nm, emission at 595 nm). The MIC of the conjugate was determined after 72 hours. The wells in which no fungal germination was detected, were scraped and plated on Sabouraud plates and the number of colonies was counted after 72 hours to determine the MFC. As a control, the antifungal activity was also determined by incubating AF as above with non-conjugated alliinase or with conjugates consisting of the non-specific mAb and alliinase.

C[C@@H]1[C@H](O)[C@@H](C)/C=C/C=C/C=C/C=C/C=C/C=C/C=C/[C@H](O[C@@H]2O[C@H](C)[C@@H](O)[C@H](N)[C@@H]2O)C[C@@H]2O[C@](O)(C[C@@H](O)C[C@@H](O)[C@H](O)CC[C@@H](O)C[C@@H](O)CC(=O)O[C@H]1C)C[C@H](O)[C@H]2C(=O)O [Amphotericin B]
MST ([1]; n=10): 18 days
survival at the end of the experiment ([1]; n=10, 36 d): 30%

C=CCS[S+]([O-])CC=C (stereo not drawn) [allicin, diallyl-dithiosulfinate]
MFC ([2]; read-out: MFC, resting conidia): 15 µg/mL (≈ 92.4 µM)
MFC ([2]; read-out: MFC, swollen conidia): 7.5 µg/mL (≈ 46.2 µM)
MFC ([2]; pure allicin, data not shown, read-out: MFC, hyphae): 30 µg/mL (≈ 185 µM)

(+)S-Allyl-cysteine sulfoxide [alliin]
growth of Aspergillus cells treated with one component only ([2]; alliin without conjugate, or conjugate without alliin): not inhibited in their growth
